A word on the pIC50: it is the negative decadic logarithm of the IC50, by convention in mol/L.

The values below come from patent publication US10221161B2, “Inhibitors of plasma kallikrein” (Kalvista Pharmaceuticals Limited, priority 2013, dated 2019).

Each structure is given as a SMILES string. pIC50: −log10 of the molar value. Bounds are passed on as bounds.

For one assay, the target named is Human plasma kallikrein (Homo sapiens (Human), UniProt P03952). In words: Determination of the IC50 for plasma kallikrein (fluorogenic substrate H-DPro-Phe-Arg-AFC). The assay is classed as biochemical. Particulars: 37° C., read-out: IC50 (human PKal). The protocol: Determination of the IC50 Plasma Kallikrein Plasma kallikrein inhibitory activity in vitro was determined using standard published methods (see e.g. Johansen et al., Int. J. Tiss. […] Shori et al., Biochem. Pharmacol., 1992, 43, 1209; Stürzebecher et al., Biol. Chem. Hoppe-Seyler, 1992, 373, 1025). Human plasma kallikrein (Protogen) was incubated at 37° C. with the fluorogenic substrate […] and various concentrations of the test compound.
Sequence of Human plasma kallikrein (P03952 391-638 limits assumed): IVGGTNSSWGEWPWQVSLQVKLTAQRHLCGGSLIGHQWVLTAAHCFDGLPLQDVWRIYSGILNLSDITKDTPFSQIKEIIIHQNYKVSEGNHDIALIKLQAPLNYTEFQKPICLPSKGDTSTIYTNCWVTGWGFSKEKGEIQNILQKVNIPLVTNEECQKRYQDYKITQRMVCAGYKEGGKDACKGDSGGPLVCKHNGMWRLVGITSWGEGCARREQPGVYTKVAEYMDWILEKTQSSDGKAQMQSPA
Sequence of Human plasma kallikrein (P03952 20-390 partner limits assumed): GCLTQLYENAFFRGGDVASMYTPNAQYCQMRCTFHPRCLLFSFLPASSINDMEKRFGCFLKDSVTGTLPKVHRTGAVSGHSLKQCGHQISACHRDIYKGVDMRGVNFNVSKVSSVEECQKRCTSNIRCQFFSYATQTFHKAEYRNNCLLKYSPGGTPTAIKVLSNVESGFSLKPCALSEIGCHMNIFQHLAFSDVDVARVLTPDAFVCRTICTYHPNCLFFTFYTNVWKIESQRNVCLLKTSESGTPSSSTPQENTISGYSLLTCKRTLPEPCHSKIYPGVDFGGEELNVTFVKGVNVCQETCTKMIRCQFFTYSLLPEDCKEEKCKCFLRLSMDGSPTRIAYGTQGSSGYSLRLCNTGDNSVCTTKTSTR

For another assay, the target named is Human KLK1 (Homo sapiens (Human), UniProt P06870). Briefly: Determination of the IC50 for KLK1 (fluorogenic substrate H-DVal-Leu-Arg-AFC). Particulars: human KLK1, 37° C. It counts as biochemical. The protocol:
Selected compounds were further screened for inhibitory activity against the related enzyme KLK1. The ability of the compounds of formula (I) to inhibit KLK1 may be determined using the following biological assay:
Determination of the IC50 for KLK1
KLK1 inhibitory activity in vitro was determined using standard published methods (see e.g. Johansen et al., Int. J. Tiss. Reac. 1986, 8, 185; Shori et al., Biochem. Pharmacol., 1992, 43, 1209; Stürzebecher et al., Biol. Chem. Hoppe-Seyler, 1992, 373, 1025). Human KLK1 (Callbiochem) was incubated at 37° C. with the fluorogenic substrate H-DVal-Leu-Arg-AFC and various concentrations of the test compound. Residual enzyme activity (initial rate of reaction) was determined by measuring the change in optical absorbance at 410 nm and the IC50 value for the test compound was determined.

Sequence of Human KLK1 (P06870 25-262): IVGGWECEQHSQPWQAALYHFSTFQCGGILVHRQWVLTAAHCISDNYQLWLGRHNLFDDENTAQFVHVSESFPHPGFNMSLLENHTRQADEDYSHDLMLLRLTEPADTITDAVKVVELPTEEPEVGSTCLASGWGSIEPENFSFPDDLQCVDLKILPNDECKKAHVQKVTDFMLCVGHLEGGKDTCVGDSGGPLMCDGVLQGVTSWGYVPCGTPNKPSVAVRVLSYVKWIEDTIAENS

In the case of `Nc1nccc2cc(CNC(=O)c3cncc(Cc4ccc(F)nc4)c3)ccc12` [Example 54, N-[(1-Aminoisoquinolin-6-yl)methyl]-5-[(6-fluoropyridin-3-yl)methyl]pyridine-3-carboxamide], the pIC50 at Human plasma kallikrein was 4.84; at Human KLK1 it was 4.97.

As for `Nc1nccc2cc(CNC(=O)c3ccc(=O)n(Cc4csc(-c5ccccc5)n4)c3)ccc12` [Example 14, N-[(1-Aminoisoquinolin-6-yl)methyl]-6-oxo-1-[(2-phenyl-1,3-thiazol-4-yl)methyl]pyridine-3-carboxamide], the pIC50 at Human plasma kallikrein was 5.57; against Human KLK1, 5.38.

Turning to `COC1CCN(c2ccc(Cc3cncc(C(=O)NCc4ccc5c(N)nccc5c4)c3)cn2)C1` (stereo not drawn) [Example 62, N-[(1-Aminoisoquinolin-6-yl)methyl]-5-{[6-(3-methoxypyrrolidin-1-yl)pyridin-3-yl]methyl}pyridine-3-carboxamide], the results for the pIC50 on Human plasma kallikrein and at Human KLK1 were 6.59 and 5.05, respectively.

Regarding `CN(C)[C@@H]1CCN(c2ccc(Cc3cncc(C(=O)NCc4ccc5c(N)nccc5c4)c3)cn2)C1` (stereo in doubt) [Example 69, N-[(1-Aminoisoquinolin-6-yl)methyl]-5-({6-[3-(dimethylamino)pyrrolidin-1-yl]pyridin-3-yl}methyl)pyridine-3-carboxamide], the pIC50 on Human plasma kallikrein was 6.24; on Human KLK1, 5.61.

Take `CN(C)[C@H]1CCN(c2cc(Cc3cncc(C(=O)NCc4ccc5c(N)nccc5c4)c3)ccn2)C1` (stereo in doubt) [Example 91, N-[(1-Aminoisoquinolin-6-yl)methyl]-5-({2-[3-(dimethylamino)pyrrolidin-1-yl]pyridin-4-yl}methyl)pyridine-3-carboxamide]: the pIC50 at Human plasma kallikrein was 5.77; against Human KLK1, 5.68.

Consider `COc1ccccc1Cc1cncc(C(=O)NCc2ccc3c(N)nccc3c2)c1` [Example 29, N-[(1-Aminoisoquinolin-6-yl)methyl]-5-[(2-methoxyphenyl)methyl]pyridine-3-carboxamide], for which the negative-log IC50 (pIC50) at Human plasma kallikrein was 4.69; at Human KLK1, 5.13.

Regarding `CC1(C)CCCN1c1ccc(Cc2cncc(C(=O)NCc3ccc4c(N)nccc4c3)c2)cn1` [Example 65, N-[(1-Aminoisoquinolin-6-yl)methyl]-5-{[6-(2,2-dimethylpyrrolidin-1-yl)pyridin-3-yl]methyl}pyridine-3-carboxamide], the pIC50 at Human plasma kallikrein is 6.88; against Human KLK1, below 5.00.

Take `Nc1nccc2cc(CNC(=O)c3cncc(Cc4ccnc(N5CCCCC5)c4)c3)ccc12` [Example 78, N-[(1-Aminoisoquinolin-6-yl)methyl]-5-{[2-(piperidin-1-yl)pyridin-4-yl]methyl}pyridine-3-carboxamide]: the negative logarithm of the IC50 (pIC50) on Human plasma kallikrein was 6.79; at Human KLK1 it was 5.16.

For `Nc1nccc2cc(CNC(=O)c3cncc(Cc4ccc(N5CCOCC5)nc4)c3)ccc12` [Example 63, N-[(1-Aminoisoquinolin-6-yl)methyl]-5-{[6-(morpholin-4-yl)pyridin-3-yl]methyl}pyridine-3-carboxamide], the figures for the pIC50 at Human plasma kallikrein and against Human KLK1 were 6.36 and below 5.00, respectively.

With `Nc1nccc2cc(CNC(=O)c3cncc(Cc4ccnc(N5CCOCC5)c4)c3)ccc12` [Example 85, N-[(1-Aminoisoquinolin-6-yl)methyl]-5-{[2-(morpholin-4-yl)pyridin-4-yl]methyl}pyridine-3-carboxamide], the pIC50 on Human plasma kallikrein was 5.78; against Human KLK1, 5.07.

For `Nc1nccc2cc(CNC(=O)c3cncc(CN4CCN(Cc5ccc(F)cc5)CC4)c3)ccc12` [Example 48, N-[(1-Aminoisoquinolin-6-yl)methyl]-5-({4-[(4-fluorophenyl)methyl]piperazin-1-yl}methyl)pyridine-3-carboxamide], the pIC50 on Human plasma kallikrein was 4.66; on Human KLK1 it was below 4.40.

As to `Cc1cnn(Cc2ccc(Cc3cncc(C(=O)NCc4ccc(CN)cc4C)c3)cc2)c1` [Example 93, N-{[4-(Aminomethyl)-2-methylphenyl]methyl}-5-({4-[(4-methylpyrazol-1-yl)methyl]phenyl}methyl)pyridine-3-carboxamide], the negative-log IC50 (pIC50) at Human plasma kallikrein was 7.84; against Human KLK1, below 4.40.

As to `Cc1cnn(Cc2ccc(Cc3ccnc(C(=O)NCc4ccc5c(N)nccc5c4)c3)cc2)c1` [Example 3, N-[(1-Aminoisoquinolin-6-yl)methyl]-4-({4-[(4-methylpyrazol-1-yl)methyl]phenyl}methyl)pyridine-2-carboxamide], the pIC50 is 6.80 on Human plasma kallikrein and below 4.40 on Human KLK1.

`Nc1nccc2cc(CNC(=O)c3cncc(Cc4ccc(N5CCC(CO)C5)nc4)c3)ccc12` (stereo not drawn) [Example 71, N-[(1-Aminoisoquinolin-6-yl)methyl]-5-({6-[3-(hydroxymethyl)pyrrolidin-1-yl]pyridin-3-yl}methyl)pyridine-3-carboxamide]: the pIC50 at Human plasma kallikrein is 6.51; on Human KLK1, 5.40.

As to `CC1CCN(c2cc(Cc3cncc(C(=O)NCc4ccc5c(N)nccc5c4)c3)ccn2)C1` (stereo not drawn) [Example 83, N-[(1-Aminoisoquinolin-6-yl)methyl]-5-{[2-(3-methylpyrrolidin-1-yl)pyridin-4-yl]methyl}pyridine-3-carboxamide], the pIC50 on Human plasma kallikrein was 6.97; against Human KLK1, 5.54.

Consider `Nc1nccc2cc(CNC(=O)c3cncc(Cc4ccc(-n5cccn5)cc4)c3)ccc12` [Example 27, N-[(1-Aminoisoquinolin-6-yl)methyl]-5-{[4-(pyrazol-1-yl)phenyl]methyl}pyridine-3-carboxamide], for which the pIC50 was 6.00 on Human plasma kallikrein and 4.92 at Human KLK1.

With `Nc1nccc2cc(CNC(=O)c3cncc(Cc4ccc(N5CCC(F)(F)C5)nc4)c3)ccc12` [Example 57, N-[(1-Aminoisoquinolin-6-yl)methyl]-5-{[6-(3,3-difluoropyrrolidin-1-yl)pyridin-3-yl]methyl}pyridine-3-carboxamide], the pIC50 at Human plasma kallikrein was 6.62; at Human KLK1 it was below 4.40.

`Cc1ccc2cc(Cc3cnc(C)c(C(=O)NCc4ccc5c(N)nccc5c4)c3)ccc2n1` [Example 22, N-[(1-Aminoisoquinolin-6-yl)methyl]-2-methyl-5-[(2-methylquinolin-6-yl)methyl]pyridine-3-carboxamide]: the pIC50 is 6.98 at Human plasma kallikrein and 6.32 against Human KLK1.

`COc1ccc(Cc2cncc(C(=O)NCc3ccc4c(N)nccc4c3)c2)cc1` [Example 26, N-[(1-Aminoisoquinolin-6-yl)methyl]-5-[(4-methoxyphenyl)methyl]pyridine-3-carboxamide]: the pIC50 was 6.03 on Human plasma kallikrein and below 4.40 against Human KLK1.

As for `Nc1nccc2cc(CNC(=O)c3cncc(CN4CCN(CC(=O)O)CC4)c3)ccc12` [Example 52, {4-[(5-{[(1-Aminoisoquinolin-6-yl)methyl]carbamoyl}pyridin-3-yl)methyl]piperazin-1-yl}acetic acid], the pIC50 at Human plasma kallikrein is 5.00; at Human KLK1, below 5.00.

As to `CN1CCN(c2cc(Cc3cncc(C(=O)NCc4ccc5c(N)nccc5c4)c3)ccn2)CC1` [Example 86, N-[(1-Aminoisoquinolin-6-yl)methyl]-5-{[2-(4-methylpiperazin-1-yl)pyridin-4-yl]methyl}pyridine-3-carboxamide], the pIC50 at Human plasma kallikrein was 6.40; on Human KLK1, 5.35.

Take `Nc1nccc2cc(CNC(=O)c3cncc(CN4CCN(CC5CCCC5)CC4)c3)ccc12` [Example 43, N-[(1-Aminoisoquinolin-6-yl)methyl]-5-{[4-(cyclopentylmethyl)piperazin-1-yl]methyl}pyridine-3-carboxamide]: the pIC50 is 4.96 on Human plasma kallikrein and 4.75 against Human KLK1.

Regarding `Nc1nccc2cc(CNC(=O)c3cncc(Cc4ccc(N5CCC(O)C5)nc4)c3)ccc12` (stereo not drawn) [Example 59, N-[(1-Aminoisoquinolin-6-yl)methyl]-5-{[6-(3-hydroxypyrrolidin-1-yl)pyridin-3-yl]methyl}pyridine-3-carboxamide], the values for the negative logarithm of the IC50 (pIC50) at Human plasma kallikrein and on Human KLK1 were 6.38 and 5.22, respectively.

Take `Nc1nccc2cc(CNC(=O)c3cncc(Cc4ccc(N5CCCCC5)nc4)c3)ccc12` [Example 56, N-[(1-Aminoisoquinolin-6-yl)methyl]-5-{[6-(piperidin-1-yl)pyridin-3-yl]methyl}pyridine-3-carboxamide]: the pIC50 on Human plasma kallikrein was 6.50; against Human KLK1 it was below 4.40.

In the case of `Cc1cnn(Cc2ccc(Cc3cc(C(=O)NCc4ccc5c(N)nccc5c4)ncn3)cc2)c1` [Example 8, N-[(1-Aminoisoquinolin-6-yl)methyl]-6-({4-[(4-methylpyrazol-1-yl)methyl]phenyl}methyl)pyrimidine-4-carboxamide], the pIC50 at Human plasma kallikrein is 6.92; at Human KLK1 it was 4.55.

Regarding `Nc1nccc2cc(CNC(=O)c3cncc(Cc4ccc(N5CCCC5=O)nc4)c3)ccc12` [Example 53, N-[(1-Aminoisoquinolin-6-yl)methyl]-5-{[6-(2-oxopyrrolidin-1-yl)pyridin-3-yl]methyl}pyridine-3-carboxamide], the pIC50 at Human plasma kallikrein was 6.70; against Human KLK1, 5.41.

For the compound `Nc1nccc2cc(CNC(=O)c3cncc(CN4CCN(CCCc5ccccc5)CC4)c3)ccc12` [Example 50, N-[(1-Aminoisoquinolin-6-yl)methyl]-5-{[4-(3-phenylpropyl)piperazin-1-yl]methyl}pyridine-3-carboxamide], the pIC50 on Human plasma kallikrein was 5.00; on Human KLK1 it was below 5.00.
